Measurements taken from ChEMBL document CHEMBL3425431, “Synthesis and evaluation of constrained phosphoramidate inhibitors of prostate-specific membrane antigen” (Bioorg Med Chem Lett, 2015).
Calls of active or inactive are those of the source. The rule behind the calls is not given here.

Columns and labels:
[1] = molecular target: T1, Glutamate carboxypeptidase 2 (Homo sapiens, UniProt Q04609); experiment: Inhibition of PSMA (unknown origin) incubated for 15 mins using PABGgG substrate by HPLC method
Target sequence in this assay (Q04609 whole entry): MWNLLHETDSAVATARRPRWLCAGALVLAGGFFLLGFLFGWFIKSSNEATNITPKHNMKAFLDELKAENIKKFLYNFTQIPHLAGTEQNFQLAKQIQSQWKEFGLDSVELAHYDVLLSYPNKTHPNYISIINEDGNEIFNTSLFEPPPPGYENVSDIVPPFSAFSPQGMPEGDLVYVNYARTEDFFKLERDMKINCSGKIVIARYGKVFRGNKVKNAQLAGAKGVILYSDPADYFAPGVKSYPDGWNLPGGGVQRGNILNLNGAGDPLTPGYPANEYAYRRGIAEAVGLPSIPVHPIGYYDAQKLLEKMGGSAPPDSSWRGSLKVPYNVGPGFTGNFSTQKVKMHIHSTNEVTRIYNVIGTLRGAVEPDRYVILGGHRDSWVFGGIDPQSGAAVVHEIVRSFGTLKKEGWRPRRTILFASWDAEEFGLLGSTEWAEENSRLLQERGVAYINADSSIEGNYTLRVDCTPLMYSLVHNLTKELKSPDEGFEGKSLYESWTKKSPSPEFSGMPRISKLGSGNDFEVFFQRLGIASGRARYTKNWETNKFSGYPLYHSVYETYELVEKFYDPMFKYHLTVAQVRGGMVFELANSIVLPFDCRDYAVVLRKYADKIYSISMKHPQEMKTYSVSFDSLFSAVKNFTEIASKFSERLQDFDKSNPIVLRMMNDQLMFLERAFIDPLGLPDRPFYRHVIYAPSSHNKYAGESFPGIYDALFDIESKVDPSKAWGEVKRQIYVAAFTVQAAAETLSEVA

[2] = molecular target: T1, Glutamate carboxypeptidase 2; details: 0.1 uM
Target sequence in this assay (Q04609 whole entry, looked up): as the sequence (Q04609 whole entry) above
Description: Slow reversible inhibition of PSMA (unknown origin) at 0.1 uM pre-incubated for 10 mins before PABGgG substrate addition by HPLC method

Mus musculus = experiment: Drug uptake in other organs of human CWR22Rv1 cells xenografted athymic NCr-nu/nu mouse at 200 uCi, iv after 2 hrs by microPET/CT imaging method; type: ADME, organism-based; details: in vivo
Kidney = experiment: Drug uptake in kidney of human CWR22Rv1 cells xenografted athymic NCr-nu/nu mouse at 200 uCi, iv after 2 hrs by microPET/CT imaging method; type: ADME, organism-based; details: in vivo
[3] = Drug uptake in tumor of human CWR22Rv1 cells xenografted athymic NCr-nu/nu mouse at 200 uCi, iv after 2 hrs by microPET/CT imaging method; type: ADME, organism-based, CWR22R; details: in vivo
[4] = Half life in pH 4.5 buffer at 50 degC by [31P] NMR spectrometry; type: physicochemical
[5] = Half life in pH 4.5 buffer at 70 degC by [31P] NMR spectrometry; type: physicochemical

IC50 [1] | inhibition [2] | Structure (SMILES) | also measured
19 nM |  | NCCCCCC(=O)N[C@@H](CCC(=O)N[C@@H](CCCOP(=O)(O)N[C@@H](CCC(=O)O)C(=O)O)C(=O)O)C(=O)O | 
3 nM | Active | O=C(O)CC[C@H](NP(=O)(O)O[C@H]1C[C@H](C(=O)O)N(C(=O)CC[C@H](NC(=O)c2ccc(F)cc2)C(=O)O)C1)C(=O)O | 
2.6 nM | Active | O=C(O)CC[C@H](NP(=O)(O)O[C@@H]1C[C@@H](C(=O)O)N(C(=O)CC[C@H](NC(=O)c2ccc(F)cc2)C(=O)O)C1)C(=O)O | 
 |  | O=C(O)CC[C@H](NP(=O)(O)O[C@@H]1C[C@@H](C(=O)O)N(C(=O)CC[C@H](NC(=O)CCCCCNC(=O)c2ccc(F)cc2)C(=O)O)C1)C(=O)O.O=C(O)CC[C@H](NP(=O)(O)O[C@@H]1C[C@@H](C(=O)O)N(C(=O)CC[C@H](NC(=O)CCCCCNC(=O)c2ccc([18F])cc2)C(=O)O)C1)C(=O)O | Drug uptake (Mus musculus): Active; Drug uptake (Kidney): Active; Drug uptake [3]: Active
112 nM | Active | NCCCCCC(=O)N[C@@H](CCC(=O)N1C[C@@H](OP(=O)(O)N[C@@H](CCC(=O)O)C(=O)O)C[C@@H]1C(=O)O)C(=O)O | 
27 nM |  | N[C@@H](CCC(=O)N[C@@H](CCCOP(=O)(O)N[C@@H](CCC(=O)O)C(=O)O)C(=O)O)C(=O)O | 
357 nM | Active | N[C@@H](CCC(=O)N1C[C@@H](OP(=O)(O)N[C@@H](CCC(=O)O)C(=O)O)C[C@@H]1C(=O)O)C(=O)O | 
1.3 nM | Active | O=C(O)CC[C@H](NP(=O)(O)O[C@@H]1C[C@@H](C(=O)O)N(C(=O)CC[C@H](NC(=O)CCCCCNC(=O)c2ccc(F)cc2)C(=O)O)C1)C(=O)O | half-life [4]: 105 min; half-life [5]: 32 min
79 nM | Active | NCCCCCC(=O)N[C@@H](CCC(=O)N1C[C@H](OP(=O)(O)N[C@@H](CCC(=O)O)C(=O)O)C[C@H]1C(=O)O)C(=O)O | 
1.3 nM |  | O=C(O)CC[C@H](NP(=O)(O)OCCC[C@H](NC(=O)CC[C@H](NC(=O)c1ccc(F)cc1)C(=O)O)C(=O)O)C(=O)O | 
11 nM | Active | O=C(O)CC[C@H](NP(=O)(O)O[C@H]1C[C@H](C(=O)O)N(C(=O)CC[C@H](NC(=O)CCCCCNC(=O)c2ccc(F)cc2)C(=O)O)C1)C(=O)O | 
60 nM | Active | N[C@@H](CCC(=O)N1C[C@H](OP(=O)(O)N[C@@H](CCC(=O)O)C(=O)O)C[C@H]1C(=O)O)C(=O)O | 

Structure (SMILES) | IC50 [1] | inhibition [2] | also measured
O=C(O)CC[C@H](NP(=O)(O)OCCC[C@H](NC(=O)CC[C@H](NC(=O)CCCCCNC(=O)c1ccc(F)cc1)C(=O)O)C(=O)O)C(=O)O [CTT-1057] | 0.4 nM |  | half-life [4]: 75 min; half-life [5]: 12 min
